Measured values reported in patent US8841310B2, “Combinations of a pyrimidine containing NNRTI with RT inhibitors” (Janssen R & D Ireland, priority 2003, dated 2014).

What was measured:
HIV-1 [1] = conditions: cited from earlier work
HIV-1 [2] = conditions: human PBMCs and MT-2 cells, increasing drug concentrations; cited from earlier work
HIV-1 RT = target: T1, HIV-1 RT (Human immunodeficiency virus type 1 group M subtype B, UniProt P04585); conditions: read-out: inhibition constant; cited from earlier work
T1 construct: The primary target of tenofovir diphosphate is reverse transcriptase (RT)

HIV-1 mutant 190A = assay: MT-4 cell-based antiviral assay, SDM mutant; conditions: Human immunodeficiency virus 1, MT4
Experimental: (§1) Compound E-TMC278 was tested in a cell-based assay, using natural host cells of HIV. MT-4 cells (a cell line of human T cells) were infected with HIV-1 (wild type or mutants) and exposed to different concentrations of antiviral compound in the presence of 10% fetal calf serum. Cytotoxicity was determined in parallel with the antiviral activity so that the selectivity of the antiviral effect could be assessed. Active compounds have to penetrate the cell membrane in order to interfere with replication steps inside the cell.
(§2) After four days of incubation at 37° C., the viability of the HIV and mock-infected cells was assessed by an automated tetrazolium-based calorimetric assay. This method enabled the calculation of both the 50% inhibitory concentration for inhibition of viral cytopathicity (IC50), the IC90, and the 50% cytotoxic concentration (CC50). The ratio CC50/IC50, also called the selectivity index, is an indication of the specificity of the antiviral effect. Tested HIV strains included: Wild type (wt) HIV-1; a panel of single and double mutants, obtained by site-directed mutagenesis (SDM), and a panel of clinical isolates, selected for resistance against NNRTIs.
(§3) A limited panel of HIV-1 mutants was constructed using site-directed mutagenesis (SDM) and homologous recombination techniques. […] Nevirapine (NVP) and efavirenz (EFV) were included as controls.

HIV-1 mutant 227L = assay: MT-4 cell-based antiviral assay, SDM mutant; conditions: Human immunodeficiency virus 1, MT4
Experimental: as §1, §2, §3

HIV-1 mutant 181C = assay: MT-4 cell-based antiviral assay, SDM mutant; conditions: Human immunodeficiency virus 1, MT4
Experimental: as §1, §2, §3

HIV-1 mutant 227C = assay: MT-4 cell-based antiviral assay, SDM mutant; conditions: Human immunodeficiency virus 1, MT4
Experimental: as §1, §2, §3

HIV-1 mutant 138K = assay: MT-4 cell-based antiviral assay, SDM mutant; conditions: Human immunodeficiency virus 1, MT4
Experimental: as §1, §2, §3

HIV-1 mutant 101E = assay: MT-4 cell-based antiviral assay, SDM mutant; conditions: Human immunodeficiency virus 1, MT4
Experimental: as §1, §2, §3

[3] = tested on: HIV-1 double mutant 227L + 106A; assay: MT-4 cell-based antiviral assay, SDM mutant; conditions: Human immunodeficiency virus 1, MT4, 96 h
Experimental: as §1, §2, §3

HIV-1 mutant 100I = assay: MT-4 cell-based antiviral assay, SDM mutant; conditions: Human immunodeficiency virus 1, MT4
Experimental: as §1, §2, §3

[4] = tested on: HIV-1 double mutant 101E + 103N; assay: MT-4 cell-based antiviral assay, SDM mutant; conditions: Human immunodeficiency virus 1, MT4, 96 h
Experimental: as §1, §2, §3

[5] = tested on: HIV-1 double mutant 100I + 103N; assay: MT-4 cell-based antiviral assay, SDM mutant; conditions: Human immunodeficiency virus 1, MT4, 96 h, 100I + 103N, MT-4 cells
Experimental: as §1, §2, §3

HIV-1 mutant 188C = assay: MT-4 cell-based antiviral assay, SDM mutant; conditions: Human immunodeficiency virus 1, MT4
Experimental: as §1, §2, §3

HIV-1 mutant 106A = assay: MT-4 cell-based antiviral assay, SDM mutant; conditions: Human immunodeficiency virus 1, MT4
Experimental: as §1, §2, §3

HIV-1 mutant 103N = assay: MT-4 cell-based antiviral assay, SDM mutant; conditions: Human immunodeficiency virus 1, MT4
Experimental: as §1, §2, §3

HIV-1 mutant 188L = assay: MT-4 cell-based antiviral assay, SDM mutant; conditions: Human immunodeficiency virus 1, MT4
Experimental: as §1, §2, §3

[6] = tested on: HIV-1 double mutant 103N + 181I; assay: MT-4 cell-based antiviral assay, SDM mutant; conditions: Human immunodeficiency virus 1, MT4, 96 h
Experimental: as §1, §2, §3

HIV-1 mutant 108I = assay: MT-4 cell-based antiviral assay, SDM mutant; conditions: Human immunodeficiency virus 1, MT4
Experimental: as §1, §2, §3

HIV-1 mutant 225H = assay: MT-4 cell-based antiviral assay, SDM mutant; conditions: Human immunodeficiency virus 1, MT4
Experimental: as §1, §2, §3

HIV-1 mutant 188H = assay: MT-4 cell-based antiviral assay, SDM mutant; conditions: Human immunodeficiency virus 1, MT4
Experimental: as §1, §2, §3

HIV-1 mutant 179E = assay: MT-4 cell-based antiviral assay, SDM mutant; conditions: Human immunodeficiency virus 1, MT4
Experimental: as §1, §2, §3

HIV-1 mutant 190S = assay: MT-4 cell-based antiviral assay, SDM mutant; conditions: Human immunodeficiency virus 1, MT4
Experimental: as §1, §2, §3

HIV-1 mutant 179D = assay: MT-4 cell-based antiviral assay, SDM mutant; conditions: Human immunodeficiency virus 1, MT4
Experimental: as §1, §2, §3

HIV-1 mutant 236L = assay: MT-4 cell-based antiviral assay, SDM mutant; conditions: Human immunodeficiency virus 1, MT4
Experimental: as §1, §2, §3

HIV-1 wild type = assay: MT-4 cell-based antiviral assay (viral cytopathicity, tetrazolium); conditions: Human immunodeficiency virus 1, MT4; wild type, MT-4 cells, 10% fetal calf serum; read-out: IC50
Experimental: as §1, §2

Nc1nc(=O)n([C@@H]2CS[C@H](CO)O2)cc1F (racemic) [(−)-beta-enantiomer of FTC, Emtricitabine]
in vitro anti-HIV-1 activity relative to the (+)-beta-enantiomer (HIV-1 [1]): 20 fold

Nc1nc(=O)n([C@@H]2CS[C@H](CO)O2)cc1F (racemic) [FTC, (±)-cis-4-amino-5-fluoro-1-[2-(hydroxymethyl)-1,3-oxathiolan-5-yl]-2(1H)-pyrimidinone]
cycles of infection until highly drug-resistant variants dominated (HIV-1 [2]): two or more

CC(Cn1cnc2c(N)ncnc21)OCP(=O)(O)OP(=O)(O)OP(=O)(O)O (stereo in doubt) [Tenofovir diphosphate]
Ki (HIV-1 RT): ~900 nM

O=C1Nc2ccc(Cl)cc2[C@@](C#CC2CC2)(C(F)(F)F)O1 [EFV, efavirenz]
IC50 (HIV-1 mutant 190A): 8 nM | IC50 (HIV-1 mutant 227L): 0.3 nM | IC50 (HIV-1 mutant 181C): 2 nM | IC50 (HIV-1 mutant 227C): 36 nM | IC50 (HIV-1 mutant 138K): 1.3 nM | IC50 (HIV-1 mutant 101E): 5 nM | IC50 [3]: 8 nM | IC50 (HIV-1 mutant 100I): 35 nM | IC50 [4]: 84 nM | IC50 [5]: 10000 nM | IC50 (HIV-1 mutant 188C): 5 nM | IC50 (HIV-1 mutant 106A): 23 nM | IC50 (HIV-1 mutant 103N): 28 nM | IC50 (HIV-1 mutant 188L): 78 nM | IC50 [6]: 37 nM | IC50 (HIV-1 mutant 108I): 2 nM | IC50 (HIV-1 mutant 225H): 2 nM | IC50 (HIV-1 mutant 188H): 9 nM | IC50 (HIV-1 mutant 179E): 5 nM | IC50 (HIV-1 mutant 190S): 275 nM | IC50 (HIV-1 mutant 179D): 6 nM | IC50 (HIV-1 mutant 236L): 1 nM | IC50 (HIV-1 wild type): 1.4 nM
